Measured values published in ChEMBL document CHEMBL6078706, “Deciphering the Comprehensive Structure-Activity Relationship of Sunshinamide for Breast Cancer Therapy through Dual Modulation of Apoptotic and Ferroptotic Pathways via TrxR1 and Gpx4 Inhibition” (J Med Chem, 2024).
The source made the active and inactive calls. The rule behind the calls is not given here.

Tests used:
MDA-MB-468 [1] = test: Induction of ferroptosis in human MDA-MB-468 cells expressing GPX4 assessed as reduction in lipid peroxidation level at 25 nM incubated for 6 hrs by C11-BODIPY staining based flow cytometry analysis; type: functional, cell-based
MDA-MB-468 [2] = test: Induction of ferroptosis in human MDA-MB-468 cells assessed as increase in lipid peroxidation at 25 nM by C11-BODIPY staining based flow cytometry analysis; type: functional, cell-based; settings: time <= 24.0 hrs
MDA-MB-468 [3] = test: Induction of endoplasmic reticulum (ER) stress-mediated apoptosis in human MDA-MB-468 cells assessed as increase in CHOP expression at 25 nM measured at 4 to 48 hrs by Western blot analysis; type: functional, cell-based; settings: time 4-48 hrs
MDA-MB-468 [4] = test: Antiproliferative activity against human MDA-MB-468 cells expressing GPX4 assessed as cell viability at 25 nM incubated for 48 hrs by MTT assay; type: functional, cell-based
MDA-MB-468 [5] = test: Induction of endoplasmic reticulum (ER) stress-mediated apoptosis in human MDA-MB-468 cells assessed as reduction in CHOP expression at 25 nM measured for 12 hrs in presence of 4-PBA by Western blot analysis; type: functional, cell-based
MDA-MB-468 [6] = test: Antiproliferative activity against human MDA-MB-468 cells expressing TrxR1 assessed as reduction in cell viability at 50 nM incubated for 48 hrs by MTT assay; type: functional, cell-based
MDA-MB-468 [7] = test: Induction of endoplasmic reticulum (ER) stress-mediated apoptosis in human MDA-MB-468 cells assessed as increase in phospho-eIF2alpha level at 25 nM measured after 12 hrs by Western blot analysis; type: functional, cell-based
MDA-MB-468 [8] = test: Induction of ferroptosis in human MDA-MB-468 cells assessed as increase in cell viability at 25 nM incubated for 48 hrs in presence of Z-VAD; type: functional, cell-based
MDA-MB-468 [9] = test: Induction of mitochondrial ROS generation in human MDA-MB-468 cells at 25 nM incubated for 6 hrs by MitoSOX dye staining based flow cytometry analysis; type: functional, cell-based
MDA-MB-468 [10] = test: Induction of endoplasmic reticulum (ER) stress-mediated apoptosis in human MDA-MB-468 cells assessed as increase in ATF4 expression at 25 nM measured at 4 to 48 hrs by Western blot analysis; type: functional, cell-based; settings: time 4-48 hrs
MDA-MB-468 [11] = test: Induction of ferroptosis in human MDA-MB-468 cells assessed as increase in MDA level at 25 nM; type: functional, cell-based
[12] = Toxicity in female BALB/c mouse implanted with mouse 4T1 cells assessed as spleen inflammation at 10 mg/kg, iv; type: organism-based; settings: in vivo
MDA-MB-468 [13] = test: Induction of mitochondrial dysfunction in human MDA-MB-468 cells assessed as reduction in oxygen consumption rate (OCR) at 25 nM; type: functional, cell-based
[14] = Toxicity in female BALB/c mouse implanted with mouse 4T1 cells assessed as kidney abnormality at 10 mg/kg, iv; type: organism-based; settings: in vivo
[15] = Toxicity in female BALB/c mouse implanted with mouse 4T1 cells assessed as liver abnormality at 10 mg/kg, iv; type: organism-based; settings: in vivo
MDA-MB-468 [16] = test: Inhibition of cell migration in human MDA-MB-468 cells assessed as decrease in cell migration at 25 nM incubated for 48 hrs by wound healing assay; type: functional, cell-based
Cisplatin-resistant 4T1 [17] = test: Antitumor activity against mouse Cisplatin-resistant 4T1 cells implanted in female BALB/c mouse assessed as reduction in tumor volume at 10 mg/kg, ip; type: functional, organism-based
MDA-MB-468 [18] = test: Induction of ROS production in human MDA-MB-468 cells assessed as increase in fluorescent signal at 25 nM incubated for 6 hrs in presence of N-acetyl cysteine by DCFH-DA staining based flow cytometry analysis; type: functional, cell-based
4T1 [19] = test: Antitumor activity against mouse 4T1 cells implanted in female BALB/c mouse assessed as increase in phospho eIF2alpha level in tumor at 10 mg/kg, iv administered upto 5 days by Western blot analysis; type: functional, organism-based; settings: time <= 5.0 day
[20] = Toxicity in female BALB/c mouse implanted with mouse 4T1 cells assessed as lung damage at 10 mg/kg, iv; type: organism-based; settings: in vivo
[21] = Toxicity in female BALB/c mouse implanted with mouse 4T1 cells assessed as spleen abnormality at 10 mg/kg, iv; type: organism-based; settings: in vivo
[22] = Toxicity in female BALB/c mouse implanted with mouse 4T1 cells assessed as lung abnormality at 10 mg/kg, iv; type: organism-based; settings: in vivo
MDA-MB-468 [23] = test: Antiproliferative activity against human MDA-MB-468 cells assessed as reduction in cell viability at 50 nM incubated for 48 hrs in presence of N-acetyl cysteine by MTT assay; type: functional, cell-based
MDA-MB-468 [24] = test: Antiproliferative activity against human MDA-MB-468 cells assessed as cell viability at 10 nM incubated for 48 hrs by MTT assay; type: functional, cell-based
Cisplatin-resistant 4T1 [25] = test: Antitumor activity against mouse Cisplatin-resistant 4T1 cells implanted in female BALB/c mouse assessed as reduction in tumor weight at 10 mg/kg, ip; type: functional, organism-based
MDA-MB-468 [26] = test: Induction of apoptosis in human MDA-MB-468 cells assessed as increase in caspase 3/7 activation at 25 nM measured at 4 hrs by Western blot analysis; type: functional, cell-based
MDA-MB-468 [27] = test: Induction of apoptosis in human MDA-MB-468 cells assessed as increase in activation of caspase at 25 nM by Western blot analysis; type: functional, cell-based; settings: time 24.0 hrs
MDA-MB-468 [28] = test: Induction of endoplasmic reticulum (ER) stress-mediated apoptosis in human MDA-MB-468 cells assessed as increase in CHOP expression at 25 nM measured at 2 hrs by Western blot analysis; type: functional, cell-based
4T1 [29] = test: Antitumor activity against mouse 4T1 cells implanted in female BALB/c mouse model assessed as increase in TNF-alpha expression in tumor at 10 mg/kg, iv administered upto 5 days; type: functional, organism-based; settings: time <= 5.0 day
4T1 [30] = test: Antitumor activity against mouse 4T1 cells implanted in female BALB/c mouse assessed as induction of intracellular ROS accumulation in tumor at 10 mg/kg, iv administered upto 5 days; type: functional, organism-based; settings: time <= 5.0 day
[31] = Toxicity in female BALB/c mouse implanted with mouse 4T1 cells assessed as spleen damage at 10 mg/kg, iv; type: organism-based; settings: in vivo
4T1 [32] = test: Antitumor activity against mouse 4T1 cells implanted in female BALB/c mouse assessed as tumor growth inhibition at 10 mg/kg, iv administered upto 5 days; type: functional, organism-based; settings: time <= 5.0 day
4T1 [33] = test: Antitumor activity against mouse 4T1 cells implanted in female BALB/c mouse assessed as increase in 4-HNE level in tumor at 10 mg/kg, iv administered upto 5 days by Western blot analysis; type: functional, organism-based; settings: time <= 5.0 day
[34] = Toxicity in female BALB/c mouse implanted with mouse 4T1 cells assessed as liver damage at 10 mg/kg, iv; type: organism-based; settings: in vivo
[35] = Toxicity in female BALB/c mouse implanted with mouse 4T1 cells assessed as lung lesion at 10 mg/kg, iv; type: organism-based; settings: in vivo
4T1 [36] = test: Antitumor activity against mouse 4T1 cells implanted in female BALB/c mouse assessed as increase in CHOP level in tumor at 10 mg/kg, iv administered upto 5 days by Western blot analysis; type: functional, organism-based; settings: time <= 5.0 day
[37] = Toxicity in female BALB/c mouse implanted with mouse 4T1 cells assessed as kidney damage at 10 mg/kg, iv; type: organism-based; settings: in vivo
MDA-MB-468 [38] = test: Induction of apoptosis in human MDA-MB-468 cells assessed as increase in cleaved caspase 3 level at 25 nM measured after 48 hrs by Western blot analysis; type: functional, cell-based

## CCCCCCC[C@@H](O)CC(=O)N[C@H](Cc1ccccc1)C(=O)N[C@H]1CSSC[C@@H](C(=O)O)NC1=O
MDA-MB-468 [1]
  Activity: Active
MDA-MB-468 [2]
  Activity: Time-dependent-effect
MDA-MB-468 [3]
  Activity: Active
MDA-MB-468 [4]
  Activity: inactive
MDA-MB-468 [5]
  Activity: inactive
MDA-MB-468 [6]
  Activity: Active
MDA-MB-468 [7]
  Activity: inactive
MDA-MB-468 [8]
  Activity: inactive
MDA-MB-468 [9]
  Activity: inactive
MDA-MB-468 [10]
  Activity: Active
MDA-MB-468 [11]
  Activity: inactive

## CCCCCCC[C@@H]1CC(=O)N[C@H](Cc2ccccc2)C(=O)N[C@@H](CSC)C(=O)N[C@@H](CSC)C(=O)O1
MDA-MB-468 [1]
  Activity: Active
MDA-MB-468 [2]
  Activity: Time-dependent-effect
MDA-MB-468 [3]
  Activity: Active
MDA-MB-468 [4]
  Activity: inactive
MDA-MB-468 [5]
  Activity: inactive
MDA-MB-468 [6]
  Activity: Active
MDA-MB-468 [7]
  Activity: inactive
MDA-MB-468 [8]
  Activity: inactive
MDA-MB-468 [9]
  Activity: inactive
MDA-MB-468 [10]
  Activity: Active
MDA-MB-468 [11]
  Activity: inactive

## CCCCCCC[C@@H]1CC(=O)N[C@H](Cc2ccccc2)C(=O)N[C@H]2CSSC[C@H](NC2=O)C(=O)O1
[12]
  Activity: Non-toxic
MDA-MB-468 [13]
  Activity: Active
[14]
  Activity: Non-toxic
[15]
  Activity: Non-toxic
MDA-MB-468 [16]
  inhibition: Active
Cisplatin-resistant 4T1 [17]
  Activity: Active
MDA-MB-468 [18]
  Activity: Active
MDA-MB-468 [4]
  Activity: inactive
MDA-MB-468 [5]
  Activity: Active
4T1 [19]
  Activity: Active
[20]
  Activity: Non-toxic
MDA-MB-468 [6]
  Activity: Active
[21]
  Activity: Non-toxic
[22]
  Activity: Non-toxic
MDA-MB-468 [23]
  Activity: Active
MDA-MB-468 [24]
  Activity: Active
Cisplatin-resistant 4T1 [25]
  Activity: Active
MDA-MB-468 [26]
  Activity: Active
MDA-MB-468 [27]
  Activity: Time-dependent-effect
MDA-MB-468 [7]
  Activity: Active
MDA-MB-468 [8]
  Activity: inactive
MDA-MB-468 [28]
  Activity: Active
4T1 [29]
  Activity: Active
MDA-MB-468 [9]
  Activity: Active
4T1 [30]
  Activity: Active
[31]
  Activity: Non-toxic
4T1 [32]
  TGI: Active
4T1 [33]
  Activity: Active
[34]
  Activity: Non-toxic
[35]
  Activity: Non-toxic
4T1 [36]
  Activity: Active
[37]
  Activity: Non-toxic
MDA-MB-468 [11]
  Activity: inactive
MDA-MB-468 [38]
  Activity: Active
